Measurements as given in paper PMC7187754, “Identification of the Molecular Determinants Involved in Antimicrobial Activity of Pseudodesmin A, a Cyclic Lipopeptide From the Viscosin Group” (Frontiers in Microbiology, 2020).
Like-named read-outs stand apart in the source and are kept apart here.

Experiments:
[1] = system: Enterococcus faecalis LMG 8222; test: Broth microdilution antimicrobial assay (MIC1/2); format: cell-based
[2] = system: Enterococcus faecium LMG 9431; test: Broth microdilution antimicrobial assay (MIC1/2); format: cell-based
[3] = system: Staphylococcus aureus LMG 10147; test: Broth microdilution antimicrobial assay (MIC1/2); format: cell-based
[4] = system: Clostridium perfringens NCTC 8798; format: cell-based
[5] = system: Streptococcus pneumoniae LMG 21598; test: Broth microdilution antimicrobial assay (MIC1/2); format: cell-based
[6] = system: Streptococcus pyogenes LMG 15868; test: Broth microdilution antimicrobial assay (MIC1/2); format: cell-based
[7] = RP-HPLC retention time as measure of overall hydrophobicity; format: physicochemical; settings: chromatographic, RP-HPLC (LC-MS system: Kinetex C18, 150 mm × 4.60 mm, 5 μm, 1.5 ml/min; gradient not stated at this place)
Procedure: Chemicals and general procedures are listed in the Supplementary Materials section. All procedures for the synthesis and purification of specific building blocks as well as solid-phase peptide synthesis, and cyclization release of the PsdA-analogs were carried out as described previously for the total synthesis of pseudodesmin A (1) and its enantiomer (2) ([De Vleeschouwer et al., 2014]). Practical details and relevant variations of the procedures for specific cases are collected in the Supplementary Materials section of this paper, together with full characterization of all fatty acid building blocks and analogs. The crude cyclic lipopeptides were purified using either semi-preparative or preparative RP-HPLC. Semi-preparative purification was performed on an Agilent 1100 series instrument using a Kromasil column (C18, 250 mm × 7.8 mm, 5 μm particle size). The analyses were executed with a flow rate of 3 ml/min and with the following solvent systems: H2O containing 0.1% HCOOH (A) and CH3CN (B). […] High-resolution mass spectra were recorded on an Agilent 6220A time-of-flight mass spectrometer, equipped with an Agilent ESI/APCI multimode source. […]

[8] = fluorescence permeability assays, model membranes, natural compounds; ref Geudens et al., 2017; cited from earlier work
From the text: We have previously reported the three-dimensional structure of the 2 neutral subgroup representatives, viscosinamide A (D^0) ([Geudens et al., 2014]) and pseudodesmin A (L^0) ([Sinnaeve et al., 2009a], [b]), while that of anionic WLIP (D^–) was already available from literature ([Han et al., 1992]). To avoid ambiguity, the three-dimensional structure is referred to hereafter as the ‘fold’ of a Ps-CLiP whereas the chemical (covalent) structure will simply be referred to as ‘structure’ as indicated in Figure 1C. In spite of the D/L switch in stereochemistry for Leu5, all have identical backbone ...

[9] = minimal concentration inhibiting growth by at least 50% vs untreated control, broth microdilution (CLSI), 0.016-32 μg/ml twofold dilutions, ~5 × 10^5 CFU/ml, 37°C, 24 h, OD 590 nm
[10] = minimal concentration inhibiting growth by at least 50% vs untreated control, broth microdilution (CLSI), Reinforced Clostridial Medium, 0.016-32 μg/ml twofold dilutions, ~5 × 10^5 CFU/ml, 37°C, 24 h, OD 590 nm

| Molecule | MIC1/2 E. faecalis LMG 8222 [1] [µg/mL] | MIC1/2 E. faecium LMG 9431 [2] [µg/mL] | MIC1/2 S. aureus LMG 10147 [3] [µg/mL] | MIC1/2 C. perfringens NCTC 8798 [4] [µg/mL] | MIC1/2 S. pneumoniae LMG 21598 [5] [µg/mL] | MIC1/2 S. pyogenes LMG 15868 [6] [µg/mL] | MIC1/2 E. faecalis LMG 8222 [1, 9] [µg/mL] | MIC1/2 E. faecium LMG 9431 [2, 9] [µg/mL] | MIC1/2 S. aureus LMG 10147 [3, 9] [µg/mL] | MIC1/2 C. perfringens NCTC 8798 [4, 10] [µg/mL] | MIC1/2 S. pneumoniae LMG 21598 [5, 9] [µg/mL] | MIC1/2 S. pyogenes LMG 15868 [6, 9] [µg/mL] | HPLC retention time (overall hydrophobicity) [7] [min] | C1/2 of membrane permeabilization [8] [µM] |
| --- | --- | --- | --- | --- | --- | --- | --- | --- | --- | --- | --- | --- | --- | --- |
| CN[C@H](CC(C)C)C(=O)N[C@H]1C(=O)N[C@@H](CC(N)=O)C(=O)N[C@H]2C(=O)N[C@H]3C(=O)N[C@H](C(=O)N[C@H](C(=O)O)c4cc(O)cc(O)c4-c4cc3ccc4O)[C@H](O)c3ccc(c(Cl)c3)Oc3cc2cc(c3O[C@@H]2O[C@H](CO)[C@@H](O)[C@H](O)[C@H]2O[C@H]2C[C@](C)(N)[C@H](O)[C@H](C)O2)Oc2ccc(cc2Cl)[C@H]1O [Vancomycin] | 4 | 1 | 2 | 0.25 | 0.25 | 0.5 |  |  |  |  |  |  |  |  |
| Pseudodesmin A [compound 1] |  |  |  |  |  |  | 4 | 4 | 4 | 2 | 2 | 1 | 7.4 | ~3.7 |
| viscosin |  |  |  |  |  |  |  |  |  |  |  |  |  | ~4.9 |
| Daptomycin |  |  |  |  |  |  | >32 | 16 |  | 8 | 4 | 2 |  |  |
